In patent publication US10441628B2, “High activity tumour inhibitor and preparation method and use thereof” (BAO KANG BIOMEDICAL HEALTHCARE INC, priority 2014, dated 2019):
Like-named read-outs stand apart in the source and are kept apart here. Positions of bridges follow the written chain, without caps; N, C: chain ends. Non-standard residues stand in square brackets, D forms with d. Residues, ends and D or L forms follow the SMILES beside them. No end group written: not given here. *: point of attachment. Phe(3-Cl) = N[C@@H](Cc1cccc(Cl)c1)C(=O)O; Stearoyl = CCCCCCCCCCCCCCCCCC(=O)*; hCys = N[C@@H](CCS)C(=O)O; Nle = CCCC[C@H](N)C(=O)O; Orn = NCCC[C@H](N)C(=O)O; Dab = NCC[C@H](N)C(=O)O

What was measured:
[1] = Cell penetration or infiltration of polypeptides; assay type: cell-based; conditions: penetration of the peptide with RRMKWKK taken as 100%
Description: In this example, the sequence was modified based on SEQ ID NO.: 1. Some preferred modification based on the tested results included: adding a disulfide linkage within the peptide, or adding a cell-penetrating element.

[2] = plasma
Method: (§4) For the YAP inhibitory polypeptides modified in above (a) and (b), the IC50 values for TEAD binding and the stability in plasma were measured.

BEL7404 [3] = assay type: cell-based
Method: (§1) The hepatoma cell line BEL7404 (purchased from The Chinese Academy of Sciences cell bank) was a cell line with high expression of YAP protein; HCCLM3 (purchased from The Chinese Academy of Sciences cell bank) was a cell line with low expression of YAP protein. The hepatoma cell lines (BEL7404 or HCCLM3) were inoculated into a 96-well plate at the concentration of 2000 cells/well, and incubated overnight in RPMI1640 containing 1% bovine serum at 37° C. The hepatoma cell lines were treated with polypeptides having different concentrations at 37° C. for 72 h.
(§2) Moreover, IC50 values of the cells in 1.1 were determined using CCK-8 kit.
(§3) The polypeptide represented by SEQ ID NO.:1 was further modified. The IC50 values of the polypeptides at a concentration of 1% in cell cultivating for 72 h were measured.

HCCLM3 = assay type: cell-based
Method: as §1, §2, §3

BEL7404 [4] = assay: Cell proliferation inhibition of BEL7404 by liposome formulations / acylated polypeptides, CCK-8; assay type: cell-based
MHCC97L = assay: Cell proliferation inhibition of MHCC97L by liposome formulations / acylated polypeptides, CCK-8; assay type: cell-based
Method: MHCC97L (ATCC) cells were seeded in 96-well plates with 10% FBS DMEM medium at a density of 4000 cells/well and incubated overnight at 37° C. […] The cell viability was determined by CCK-8 kit.

[5] = Stability in plasma (residual peptide)
Method: as §4

TEAD = TEAD (UniProt P28347); assay: TEAD binding (TR-FRET test)
Method: The interaction of the two molecules makes the two fluorophores close to each other and generate energy transfer, and then fluoresce at specific wavelength is transmitted.
The sequences of the modified peptides were represented by SEQ ID NOs.: 8 and 9. The IC50 values for TEAD binding and stability in plasma were measured.
The modified polypeptides were tested to measure IC50 values for TEAD binding and stability in plasma.

in vitro = conditions: plasma
Method: as §4

Chain of TEAD (P28347 whole entry): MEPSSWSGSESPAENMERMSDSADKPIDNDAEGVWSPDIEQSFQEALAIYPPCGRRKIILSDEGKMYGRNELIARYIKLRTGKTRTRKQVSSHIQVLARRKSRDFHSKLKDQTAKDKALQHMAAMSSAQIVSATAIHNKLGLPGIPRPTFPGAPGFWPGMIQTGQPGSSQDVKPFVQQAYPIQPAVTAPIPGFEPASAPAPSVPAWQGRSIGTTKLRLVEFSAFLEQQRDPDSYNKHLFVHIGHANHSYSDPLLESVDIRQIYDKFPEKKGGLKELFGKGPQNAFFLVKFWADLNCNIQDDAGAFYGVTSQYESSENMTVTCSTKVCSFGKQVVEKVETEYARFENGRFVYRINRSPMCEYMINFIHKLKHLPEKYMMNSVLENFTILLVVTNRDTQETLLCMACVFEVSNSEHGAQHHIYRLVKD

3: Peptide (SEQ ID NO.: 1) + Cell-penetrating element 1 (RRMKWKK, SEQ ID NO.: 13) (VPMRLRKLPDSFFKPPERRMKWKK; cell penetrating element; listed as Homo sapiens) [Peptide 3]
Percentage of Cell penetration or infiltration [1]: 100%
Stability (4 h) [2]: 49%

4: Peptide (SEQ ID NO.: 1) + Cell-penetrating element 2 (RGRKKRRQRRR, SEQ ID NO.: 14) (VPMRLRKLPDSFFKPPERGRKKRRQRRR; cell penetrating element; listed as Homo sapiens) [Peptide 4]
Percentage of Cell penetration or infiltration [1]: 135%

32 (VPXLXKKXPASFKCPPRRMKWKK; (3)..(3) Xaa=(3Cl-)F; (5)..(5) Xaa=Hcy; (8)..(8) Xaa=Nle) [compound 32]
IC50 (BEL7404 [3]; concentration of 1% in cell cultivating for 72 h, read-out: IC50 BEL7404): 38.4 ± 3.8 µM
IC50 (HCCLM3; concentration of 1% in cell cultivating for 72 h, read-out: IC50 HCCLM3): 319 ± 17.5 µM

CCCCCCCCCCCCCCCCCC(=O)NCCCC[C@H](NC(=O)[C@@H]1CSSCC[C@H](NC(=O)[C@H](CCCCN)NC(=O)[C@H](CCCCN)NC(=O)[C@H](CC(C)C)NC(=O)[C@H](Cc2cccc(Cl)c2)NC(=O)[C@@H]2CCCN2C(=O)[C@@H](NC(C)=O)C(C)C)C(=O)N[C@@H](CCCC)C(=O)N2CCC[C@H]2C(=O)N[C@@H](C)C(=O)N[C@@H](CO)C(=O)N[C@@H](Cc2ccccc2)C(=O)N[C@@H](CCCCN)C(=O)N2CCC[C@H]2C(=O)N2CCC[C@H]2C(=O)N1)C(N)=O [P49 polypeptide] (Ac-VP[Phe(3-Cl)]LKK[hCys][Nle]PASFKPPCK(Stearoyl)-NH2; disulfide 7-16)
IC50 (BEL7404 [4]): 2.02 ± 0.39 µM
IC50 (MHCC97L): 7.83 ± 2.69 µM

CSCC[C@H](NC(=O)[C@@H]1CCCN1C(=O)[C@@H](N)C(C)C)C(=O)N[C@H]1CCSSC[C@@H](C(=O)N[C@@H](CCCCN)C(=O)N2CCC[C@H]2C(=O)N2CCC[C@H]2C(=O)N[C@@H](CCC(=O)O)C(=O)O)NC(=O)[C@H](Cc2ccccc2)NC(=O)[C@H](CO)NC(=O)[C@H](CC(=O)O)NC(=O)[C@@H]2CCCN2C(=O)[C@H](CC(C)C)NC(=O)[C@H](CCCCN)NC(=O)[C@H](CCCNC(=N)N)NC(=O)[C@H](CC(C)C)NC1=O [Peptide 2]
Percentage of Cell penetration or infiltration [1]: 8%
remaining at 4 h ([5]; plasma, Stability (4 h), plasma, percentage of residual peptides after 4 h): 93%

CSCC[C@H](NC(=O)[C@@H]1CCCN1C(=O)[C@@H](N)C(C)C)C(=O)N[C@@H](CCCNC(=N)N)C(=O)N[C@@H](CC(C)C)C(=O)N[C@@H](CCCNC(=N)N)C(=O)N[C@@H](CCCCN)C(=O)N[C@@H](CC(C)C)C(=O)N1CCC[C@H]1C(=O)N[C@@H](CC(=O)O)C(=O)N[C@@H](CO)C(=O)N[C@@H](Cc1ccccc1)C(=O)N[C@@H](Cc1ccccc1)C(=O)N[C@@H](CCCCN)C(=O)N1CCC[C@H]1C(=O)N1CCC[C@H]1C(=O)N[C@@H](CCC(=O)O)C(=O)O [SEQ ID NO.: 1]
IC50 (BEL7404 [3]; 72 h): 388 ± 43.6 µM
IC50 (HCCLM3; 72 h): 809 ± 27.4 µM
stability (in words) [5]: low stability
remaining at 4 h ([5]; plasma): 0%
Stability (>24 h) ([5]; plasma, percentage of residual peptides after >24 h): 0%

CC(C)C[C@@H]1NC(=O)[C@@H](NC(=O)[C@H](Cc2ccccc2)NC(=O)[C@@H]2CCCN2C(=O)[C@@H](N)C(C)C)CCSSC[C@@H](C(=O)N[C@@H](CCCCN)C(=O)N2CCC[C@H]2C(=O)N2CCC[C@H]2C(=O)N[C@@H](CCC(=O)O)C(=O)O)NC(=O)[C@H](Cc2ccccc2)NC(=O)[C@H](CO)NC(=O)[C@H](CC(=O)O)NC(=O)[C@@H]2CCCN2C(=O)[C@H](CC(C)C)NC(=O)[C@H](CCCN)NC(=O)[C@H](CCCNC(=N)N)NC1=O [compound 5] (H-VPF[hCys]LR[Orn]LPDSFCKPPE-OH; disulfide 4-13 (inferred); N-terminus and C-terminus assumed)
IC50 (TEAD): 0.043 µM
remaining at 4 h (in vitro): 99%

CC(C)C[C@@H]1NC(=O)[C@@H](NC(=O)[C@H](Cc2ccccc2)NC(=O)[C@@H]2CCCN2C(=O)[C@@H](N)C(C)C)CCSSC[C@@H](C(=O)N[C@@H](CCCCN)C(=O)N2CCC[C@H]2C(=O)N2CCC[C@H]2C(=O)N[C@@H](CCC(=O)O)C(=O)O)NC(=O)[C@H](Cc2ccccc2)NC(=O)[C@H](CO)NC(=O)[C@H](CC(=O)O)NC(=O)[C@@H]2CCCN2C(=O)[C@H](CC(C)C)NC(=O)[C@H](CCN)NC(=O)[C@H](CCCNC(=N)N)NC1=O [compound 6] (H-VPF[hCys]LR[Dab]LPDSFCKPPE-OH; disulfide 4-13 (inferred); N-terminus and C-terminus assumed)
IC50 (TEAD): 0.028 µM
remaining at 4 h (in vitro): 98%

CSCC[C@H](NC(=O)[C@@H]1CCCN1C(=O)[C@@H](N)C(C)C)C(=O)N[C@H]1CSSC[C@@H](C(=O)N[C@@H](Cc2c[nH]cn2)C(=O)N2CCC[C@H]2C(=O)N2CCC[C@H]2C(=O)N[C@@H](CCC(=O)O)C(=O)O)NC(=O)[C@H](Cc2ccccc2)NC(=O)[C@H](CO)NC(=O)[C@H](CCC(=O)O)NC(=O)[C@@H]2CCCN2C(=O)[C@H](CC(C)C)NC(=O)[C@H](CCCCN)NC(=O)[C@H](CCCNC(=N)N)NC(=O)[C@H](CC(C)C)NC1=O [compound 8] (H-VPMCLRKLPESFCHPPE-OH; disulfide 4-13; N-terminus and C-terminus assumed)
IC50 (TEAD): 0.028 µM
remaining at 4 h (in vitro): 105%

CSCC[C@H](NC(=O)[C@@H]1CCCN1C(=O)[C@@H](N)C(C)C)C(=O)N[C@H]1CCSSC[C@@H](C(=O)N[C@@H](CC(=O)O)C(=O)N2CCC[C@H]2C(=O)N2CCC[C@H]2C(=O)N[C@@H](CCC(=O)O)C(=O)O)NC(=O)[C@H](Cc2ccccc2)NC(=O)[C@H](CO)NC(=O)[C@H](CS)NC(=O)[C@@H]2CCCN2C(=O)[C@H](CC(C)C)NC(=O)[C@H](CCCCN)NC(=O)[C@H](CCCNC(=N)N)NC(=O)[C@H](CC(C)C)NC1=O [compound 9] (H-VPM[hCys]LRKLPCSFCDPPE-OH; disulfide 4-13)
IC50 (TEAD): 0.025 µM
remaining at 4 h (in vitro): 100%

PAGWEMAKTSSGQRYF [compound 20]
IC50 (BEL7404 [3]; 72 h): 444 ± 46.5 µM
IC50 (HCCLM3; 72 h): > 1000 µM

PQGQGPPSGPGQPAPA [compound 16]
IC50 (BEL7404 [3]; 72 h): 242 ± 27.2 µM
IC50 (HCCLM3; 72 h): > 1000 µM
